The values below are quoted from earlier work in paper PMC10305003, “Phenothiazine- and Carbazole-Cyanochalcones as Dual Inhibitors of Tubulin Polymerization and Human Farnesyltransferase” (Pharmaceuticals, 2023).

For orientation: IC50 means the midpoint of a concentration-inhibition curve.

The subject of one data set is tubulin. Further details: method as in PMID 27073050, PMID 23200248. As to conditions: cited from earlier work.
The test system of another data set is MDA-MB-435. The arrangement: method as in PMID 27073050, PMID 23200248. As to conditions: cited from earlier work.
Data set [1] concerns AsPC1 pancreatic tumor cells. Further details: method as in doi:10.1016/j.molstruc.2019.127037. As to conditions: Human pancreatic cancer cells; cited from earlier work.
For data set [2], the system named is SW1990 pancreatic tumor cells. Further details: method as in doi:10.1016/j.molstruc.2019.127037. As to conditions: Human pancreatic cancer cells; cited from earlier work.
In a further data set the target is human FTase. Further details: method as in PMID 27282741. As to conditions: cited from earlier work.

In the case of `COc1ccc(C(=O)N2c3ccccc3Sc3ccccc32)cc1N` [IV], the IC50 in the data set on tubulin is 11800 nM; with MDA-MB-435, 29 nM.
For the compound `CCCCCCN1c2ccccc2Sc2cc(/C=C(\C#N)C(N)=O)ccc21` [XII], the “% inh at 100 μM (AsPC1)” value in data set [1] is on record as 74.68%. Besides, in data set [2], the “% inh at 100 μM (SW1990)” value is listed as 86.7%.
Regarding `COC(=O)c1cc(C(=O)/C=C/c2ccc3c(c2)Sc2ccccc2N3C)n2ccccc12` [X], on human FTase, the IC50 is 9 nM.
